The test system of series [1] is normal human melanocytes. Put plainly: Melanomodulating effect: intracellular melanine/proteins ratio in normal human melanocytes in monolayer culture (72 h). The format is cell-based. The source says:
The search of a “melanomodulating” effect has been performed in two steps: • melanomodulating effect of the active ingredients taken separately at predetermined concentrations in the cytotoxicity tests. • Melanomodulating effect of the complex, i.e. GABA in admixture with the other ingredients, white mulberry, lemon and lactic acid.
These tests have been performed on a model of normal human melanocytes cultured on monolayer cultures.
Gamma aminobutyric acid, lemon extract and white mulberry extract have been solubilized and directly diluted in the culture medium.
In this method the ratio melanine/proteins is determined as a percentage of the controls.
The effect of a complex containing the active ingredients A (gamma aminobutyric acid), C, D and lactic acid (composition E) has also been evaluated as a comparating element, on the synthesis of melanine in a model of normal human melanocytes cultured in a monolayer culture.
The tested compositions have therafter been directly diluted in the incubation medium for the melanocytes at a concentration of 0.1, 0.5 and 1% (v/v).
Normal human melanocytes have been utilized stemming from a young patient. They have been cultured in a monolayer culture until of a confluence of 80%.
1—Dosage of Melanine: • at the end of the incubation period, the intra cellular content of melanine has been quantified after cellular lysis, using a spectrophotometric measure at 405 nm.
2—Dosage of the Proteins: • at the end of incubation period the proteins contained in the cellular lysates have been determined using a spectrocolometric method based on Coomassie Blue according to the method of Bradford M. (Anal. Biochem. 72 (1976) 248-254).

Series [2] relates to normal human melanocytes. The note with it: for Dose from which a cytotoxic effect is detected (less than 80% of the viable cells still present) / Percentage of viability (vs controls), Mean: human, 72 h. Here is the method: The determination is performed with normal human melanocytes obtained from a young patient. For the performance of the tests, the cells have been cultured until obtention of confluent mono-layers.
As a comparison one has prepared a 10% solution of kojic acid and a 30% solution of lactic acid (composition E).
The tested preparations have been then directly diluted in the incubation medium for the melanocytes.
At the end of the incubation period, the viability of the cells has been evaluated using a spectrophotometric method for dosing the activity of the intracellular phosphatases. According to the method of Yan T. et al. (Anal. Biochem. 24 (1996) 103-108), one doses the p-nitrophenol resulting from the conversion of the phosphate of p-nitrophenol by means of the intracellular phophatases of the viable cells present in the wall of culture.

In series [3] the target is T1, tyrosinase (Homo sapiens, UniProt P14679).
T1 construct: cultures of normal human melanocytes; endogenous in cells; host or cells: normal human melanocytes
The series can be described thus: Inhibiting activity on tyrosinase in cultures of normal human melanocytes. In kind it is cell-based. An excerpt: Gamma aminobutyric acid as well as its salts and derivatives used in such compositions has been studied on isolated cells and namely on cultures of normal human melanocytes. […] The obtained results are a function of the doses what is in favour of a specific effect of gamma-aminobutyric acid on this kind of parameters.

Values joined by “and” are separate entries in the source; they are usually repeats but may differ in a detail not shown here. Equal values may be shown once. Read-outs that look alike come from different tables or passages of the source. Marks after values point to notes of the source that are not given here.

T1 sequence (P14679 19-529): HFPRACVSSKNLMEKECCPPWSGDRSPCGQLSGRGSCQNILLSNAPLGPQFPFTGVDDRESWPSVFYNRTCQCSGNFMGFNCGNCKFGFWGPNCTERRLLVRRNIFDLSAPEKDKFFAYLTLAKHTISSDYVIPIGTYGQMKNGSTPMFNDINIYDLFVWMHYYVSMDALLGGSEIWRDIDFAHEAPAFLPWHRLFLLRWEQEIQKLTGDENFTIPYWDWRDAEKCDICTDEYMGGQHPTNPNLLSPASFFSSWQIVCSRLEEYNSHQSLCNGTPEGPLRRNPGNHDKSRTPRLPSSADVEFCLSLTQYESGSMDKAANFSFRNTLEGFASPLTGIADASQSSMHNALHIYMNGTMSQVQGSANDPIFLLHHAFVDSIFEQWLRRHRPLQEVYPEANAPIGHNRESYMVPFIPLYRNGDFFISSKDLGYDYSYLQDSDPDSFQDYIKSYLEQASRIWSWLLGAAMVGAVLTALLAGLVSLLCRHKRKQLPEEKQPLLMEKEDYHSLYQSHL

On to `NCCCC(=O)O` [A, gamma aminobutyric acid], for which, in series [1] (Step 1, 72 h), the “Concentration from which results on ratio melanine/proteins are statistically significant” value is 0.1%. In addition, the “Ratio Melanine Proteins (% of the controls), Mean” value in series [1] (Step 1, A 0.001% (w/v), 72 h, mean) is reported as 101.9 % of the controls; in series [1] (Step 1, A 0.01% (w/v), 72 h, mean), 96.6 % of the controls; in series [1] (Step 1, A 0.1% (w/v), 72 h, mean) it was 74.0* % of the controls. Also, the “Ratio Melanine Proteins (% of the controls)” value was 98.8 % of the controls and 108.6 % of the controls and 98.3 % of the controls in series [1] (Step 1, A 0.001% (w/v), 72 h, single values); 87.0 % of the controls and 101.8 % of the controls and 101.1 % of the controls in series [1] (Step 1, A 0.01% (w/v), 72 h, single values); 74.3 % of the controls and 76.4 % of the controls and 74.2 % of the controls and 71.3 % of the controls in series [1] (Step 1, A 0.1% (w/v), 72 h, single values). Also, the “Intra cellular content of melanine in the cultured cells, result in words” value in series [1] (cultured normal human melanocytes) is “clear decrease”. For the same compound, the “Dose from which a cytotoxic effect is detected (less than 80% of the viable cells still present)” value in series [2] came to 0.5%. Also, the “Inhibiting activity on tyrosinase, result in words” value in series [3] is “inhibiting activity on tyrosinase”.
As for `O=c1cc(CO)occ1O` [Kojic Acid, Kojic acid], the “Ratio melanine/Proteins (% of the controls), Mean” value was 77.40* % of the controls in series [1] (Step 1, Kojic Acid 250 μM in DMSO, 72 h, mean) and 100.8* % of the controls in series [1] (Step 2, Kojic Acid 250 μM, 72 h, mean (controls mean 119.2)). Moreover, the “% of the controls (mean ratio melanine/proteins, controls = 100)” value in series [1] (Step 2, Kojic Acid 250 μM, 72 h) is listed as 84.5 % of the controls. Also, the “Ratio melanine/Proteins (% of the controls)” value in series [1] (Step 2, Kojic Acid 250 μM, 72 h, single values) was 106.3 % of the controls and 93.2 % of the controls and 102.8 % of the controls and 94.1 % of the controls and 97.9 % of the controls. The “Decrease of the intra cellular content of melanine in the culture cells” value in series [1] (Step 2, Kojic acid at 250 μM, 72 h, p<0.05) is 15.5%.
Consider `CC(O)C(=O)O` (stereo not shown) [E, lactic acid], for which the “Cytotoxicity, result in words” value in series [2] is “clearly cytotoxic”. For the same compound, the “Dose from which a cytotoxic effect is detected (less than 80% of the viable cells still present)” value in series [2] is recorded as 0.03%. Also, the “Percentage of viability (vs controls), Mean” value in series [2] (0.003 % (v/v)) was 80.8%; in series [2] (0.03 % (v/v)), 73.2%; in series [2] (0.075 % (v/v)), 70.8%; in series [2] (0.15 % (v/v)), 65.9%; in series [2] (0.3 % (v/v)) it was 6.2%; in series [2] (0.75 % (v/v)), 2.4%. Besides, the “Percentage of viability (vs controls), Mean” value turned out to be 0.2% in series [2] (1.5 % (v/v)) and 0.8% in series [2] (3 % (v/v)).
